Numbered stars: 1 amine (or outer) side, 2 acyl side, 3 side chain; on linkers, the order of the positions; unused ones are H or OH. Square brackets hold non-standard residues; d marks the D form. Peptide text beside a SMILES is read from it. X1 = O=C1[C@@H](N[*:1])Cc2ccccc2CN1CCC(=O)[*:2]; Dmt = Cc1cc(O)cc(C)c1C[C@H](N)C(=O)O
Assays:
[1] = tested on: non-human primates; set-up: method as in PMID 30158150; conditions: cited from earlier work
[2] = set-up: method as in PMID 27035422; conditions: cited from earlier work
[3] = tested on: mice; assay: Formalin test (formalin-induced acute inflammatory pain); conditions: for %Antinociceptive effect Phase I: Phase I 0-5 min; for %Antinociceptive effect Phase II: Phase II 15-60 min
[4] = tested on: rats; set-up: method as in PMID 27035422, PMID 28135212; conditions: i.v. at equianalgesic doses to rats; cited from earlier work
[5] = target: T1, human DOR (Homo sapiens, UniProt P41143); assay: [35S]GTPγS binding assay, CHO-hDOR membranes; type: biochemical
T1 construct: expressed in transfected cells; host or cells: CHO (CHO-hDOR; gift of Lawrence Toll, SRI International)

[6] = tested on: rats; conditions: acute i.t. administration in rats; cited from earlier work
[7] = tested on: mice; assay: CFA-induced chronic inflammatory pain, thermal sensitivity (Hargreaves test); type: in vivo, mouse
[8] = tested on: mice; assay: Open-field test (spontaneous locomotor activity)
[9] = target: T2, human KOR (Homo sapiens, UniProt P41145); assay: [35S]GTPγS binding assay, CHO-hKOR membranes; type: biochemical
T2 construct: expressed in transfected cells; host or cells: CHO (CHO-hKOR; gift of Lawrence Toll, SRI International)

[10] = target: T3, human MOR (Homo sapiens, UniProt P35372); assay: Competitive radioligand binding assay ([3H]DAMGO), CHO-hMOR membranes; conditions: CHO-hOR membranes, mean ± SEM, read-out: Receptor Binding Ki
T3 construct: expressed in transfected cells; host or cells: CHO (CHO-hMOR; gift of Lawrence Toll, SRI International)

[11] = tested on: mice; assay: CFA-induced chronic inflammatory pain, mechanical sensitivity (von Frey test); type: in vivo, mouse
[12] = target: T4, human NOP receptor (Homo sapiens, UniProt P41146); assay: [35S]GTPγS binding assay, CHO-hNOP membranes; type: biochemical; conditions: relative to maximum effect of nociceptin (100%)
T4 construct: expressed in transfected cells; host or cells: CHO (CHO-hNOP; gift of Lawrence Toll, SRI International)

[13] = target: T1, human DOR; assay: Competitive radioligand binding assay ([3H]diprenorphine), CHO-hDOR membranes; conditions: CHO-hOR membranes, mean ± SEM, read-out: Receptor Binding Ki
[14] = target: T3, human MOR; assay: [35S]GTPγS binding assay, CHO-hMOR membranes; type: biochemical
[15] = tested on: mice; assay: Conditioned place preference (CPP); conditions: 4-day conditioning
[16] = target: T2, human KOR; assay: Competitive radioligand binding assay ([3H]U69,593), CHO-hKOR membranes; conditions: [3H]U69,593, CHO-hOR membranes, mean ± SEM, read-out: Receptor Binding Ki
[17] = tested on: mice; set-up: method as in PMID 17132815, PMID 23652222; conditions: cited from earlier work
[18] = tested on: mice; assay: Naloxone-precipitated withdrawal syndrome; conditions: 15.5 µmol/kg s.c. daily 5 days; naloxone 1 mg/kg s.c.

CC(C)C1CCC(N2CCC3(CC2)C(=O)N(CCNS(N)(=O)=O)Cc2ccccc23)CC1 (stereo not drawn) [AT-121]
Antinociception and side effects [1]: produced antinociception with reduced respiratory depression and physical dependence

CC[C@H](C)[C@H](NC(=O)[C@H](CCCNC(=N)N)NC(=O)[C@H](Cc1ccc(O)cc1)NC(=O)[C@H](Cc1ccc(O)cc1)NC(=O)[C@H](CCCNC(=N)N)NC(=O)CCN1Cc2ccccc2C[C@H](NC(=O)[C@@H](CCCNC(=N)N)NC(=O)[C@@H](N)Cc2c(C)cc(O)cc2C)C1=O)C(=O)N[C@@H](CCCCN)C(N)=O [KGNOP1, H-Dmt-D-Arg-Aba-β-Ala-Arg-Tyr-Tyr-Arg-Ile-Lys-NH2] (H-[Dmt][dR][X1]RYYRIK-NH2)
Half-life time t1/2 in human plasma [2]: 9.77 h | %Antinociceptive effect Phase I ([3]; 0.12 µmol/kg s.c.): 33.9 ± 3.8% | %Antinociceptive effect Phase II ([3]; 0.12 µmol/kg s.c.): 2.3 ± 11.1% | %Antinociceptive effect Phase I ([3]; 0.49 µmol/kg s.c.): 33.7 ± 9.3% | %Antinociceptive effect Phase II ([3]; 0.49 µmol/kg s.c.): 51.8 ± 9.7% | Pain response counted between 15 and 60 min ([3]; 1.22 µmol/kg s.c.): almost complete inhibition of the pain response | %Antinociceptive effect Phase I ([3]; 1.22 µmol/kg s.c.): 55.6 ± 7.3% | %Antinociceptive effect Phase II ([3]; 1.22 µmol/kg s.c.): 71.4 ± 6.8% | Antinociceptive effect after pre-treatment with SB-612111 ([3]; KGNOP1 1.22 µmol/kg s.c., SB-612111 6.6 µmol/kg s.c., -30 min, Phase I and II): significantly reversed the antinociceptive response | Antinociceptive effect after pre-treatment with naltrexone ([3]; KGNOP1 1.22 µmol/kg s.c., naltrexone 2.6 µmol/kg s.c., -15 min, Phase I and II): significant antagonism of the antinociceptive effect | Antinociceptive ED50 (95% CL), Phase I ([3]; s.c., acute nociceptive Phase I (0-5 min)): 1.17 µmol/kg | Antinociceptive ED50 (95% CL), Phase II ([3]; s.c., inflammatory Phase II (15-60 min)): 0.55 µmol/kg | Respiratory depression in contrast to morphine [4]: significantly less respiratory depression | EC50 [5]: 51.6 ± 17.8 nM | Emax ([5]; relative to maximum effect of DPDPE (100%)): 106 ± 3% | Effect on evoked locomotor activity in the rotarod test [6]: lack of KGNOP1′s effect on the evoked locomotor activity | Time span of significant inhibition of thermal hyperalgesia vs saline ([7]; 0.49 µmol/kg s.c.): 30 to 240 min | % reversal of thermal sensitivity ([7]; 0.49 µmol/kg s.c., 30 min): 23.5% | % reversal of thermal sensitivity ([7]; 0.49 µmol/kg s.c., 1 h): 38.1% | % reversal of thermal sensitivity ([7]; 0.49 µmol/kg s.c., 2 h): 59.8% | % reversal of thermal sensitivity ([7]; 0.49 µmol/kg s.c., 3 h): 40.2% | % reversal of thermal sensitivity ([7]; 0.49 µmol/kg s.c., 4 h): 25.4% | % reversal of thermal sensitivity ([7]; 0.49 µmol/kg s.c., 5 h): 15.7% | % reversal of thermal sensitivity ([7]; 0.49 µmol/kg s.c., 6 h): 9.3% | % reversal of thermal sensitivity ([7]; 0.49 µmol/kg s.c., 7 h): -1.46% | % reversal of thermal sensitivity ([7]; 0.49 µmol/kg s.c., 8 h): 6.12% | % reversal of thermal sensitivity ([7]; 0.49 µmol/kg s.c., 24 h): -3.79% | Time of maximum efficacy, Hargreaves test ([7]; 1.22 µmol/kg s.c.): two hours | Time span of significant inhibition of thermal hyperalgesia vs saline ([7]; 1.22 µmol/kg s.c.): 30 to 360 min | % reversal of thermal sensitivity ([7]; 1.22 µmol/kg s.c., 30 min): 31.9% | % reversal of thermal sensitivity ([7]; 1.22 µmol/kg s.c., 1 h): 54.4% | % reversal of thermal sensitivity ([7]; 1.22 µmol/kg s.c., 2 h): 98.6% | % reversal of thermal sensitivity ([7]; 1.22 µmol/kg s.c., 3 h): 78.6% | % reversal of thermal sensitivity ([7]; 1.22 µmol/kg s.c., 4 h): 58.2% | % reversal of thermal sensitivity ([7]; 1.22 µmol/kg s.c., 5 h): 26.0% | % reversal of thermal sensitivity ([7]; 1.22 µmol/kg s.c., 6 h): 26.7% | % reversal of thermal sensitivity ([7]; 1.22 µmol/kg s.c., 7 h): 10.2% | % reversal of thermal sensitivity ([7]; 1.22 µmol/kg s.c., 8 h): 9.15% | % reversal of thermal sensitivity ([7]; 1.22 µmol/kg s.c., 24 h): 6.72% | Duration of reversal of CFA-induced thermal hyperalgesia ([7]; s.c.): up to 6 h | Spontaneous locomotor activity (distance traveled) vs saline ([8]; 1.22 µmol/kg s.c. daily for 4 days): no significant alteration in locomotion | Spontaneous locomotor activity (distance traveled) vs saline ([8]; 2.44 µmol/kg s.c., only at day 1): significant decrease in locomotion | EC50 [9]: 112 ± 32 nM | Emax ([9]; relative to maximum effect of U69,593 (100%)): 37 ± 3% | Ki [10]: 0.42 ± 0.08 nM | Time points of significant effect on mechanical stimulation vs saline ([11]; 1.22 µmol/kg s.c.): one hour | % reversal of mechanical sensitivity ([11]; 1.22 µmol/kg s.c., 30 min): -6.71% | % reversal of mechanical sensitivity ([11]; 1.22 µmol/kg s.c., 1 h): 65.4% | % reversal of mechanical sensitivity ([11]; 1.22 µmol/kg s.c., 2 h): 19.1% | % reversal of mechanical sensitivity ([11]; 1.22 µmol/kg s.c., 3 h): -8.73% | % reversal of mechanical sensitivity ([11]; 1.22 µmol/kg s.c., 4 h): 21.1% | % reversal of mechanical sensitivity ([11]; 1.22 µmol/kg s.c., 5 h): -0.50% | % reversal of mechanical sensitivity ([11]; 1.22 µmol/kg s.c., 6 h): -12.9% | % reversal of mechanical sensitivity ([11]; 1.22 µmol/kg s.c., 7 h): -8.30% | % reversal of mechanical sensitivity ([11]; 1.22 µmol/kg s.c., 8 h): -2.42% | % reversal of mechanical sensitivity ([11]; 1.22 µmol/kg s.c., 24 h): -8.66% | Emax [12]: 99 ± 8% | Ki [13]: 12.2 ± 3.5 nM | EC50 [14]: 2.5 ± 0.81 nM | Emax ([14]; relative to maximum effect of DAMGO (100%)): 92 ± 4% | CPP response vs saline ([15]; 1.22 and 2.44 µmol/kg s.c.): no significant preference at any tested dose | Ki [16]: 13.4 ± 4.3 nM

O=C1Cc2ccccc2N1C1CCN(C2C3CCCC2CCC3)CC1 (stereo not drawn) [SR16435, 1-(1-(bicyclo [3.3. 1]nonan-9-yl)piperidin-4-yl) indolin-2-one]
CPP in mice [17]: induced CPP in mice to the same extent as morphine

CN1CC[C@]23c4c5ccc(O)c4O[C@H]2[C@@H](O)C=C[C@H]3[C@H]1C5 [morphine, reference compound]
%Antinociceptive effect Phase I ([3]; 3.11 µmol/kg s.c.): 19.4 ± 6.7% | %Antinociceptive effect Phase II ([3]; 3.11 µmol/kg s.c.): 24.8 ± 11.6% | %Antinociceptive effect Phase I ([3]; 7.77 µmol/kg s.c.): 32.6 ± 5.7% | %Antinociceptive effect Phase II ([3]; 7.77 µmol/kg s.c.): 57.5 ± 8.3% | Pain response counted between 15 and 60 min ([3]; 15.5 µmol/kg s.c.): almost complete inhibition of the pain response | %Antinociceptive effect Phase I ([3]; 15.5 µmol/kg s.c.): 38.4 ± 10.9% | %Antinociceptive effect Phase II ([3]; 15.5 µmol/kg s.c.): 79.1 ± 7.5% | Time of peak antihyperalgesic effect ([7]; 15.5 µmol/kg s.c.): 30 min | Time points of significant reduction in thermal hyperalgesia vs saline ([7]; 15.5 µmol/kg s.c.): 30 min and one hour | % reversal of thermal sensitivity ([7]; 15.5 µmol/kg s.c., 30 min): 68.6% | % reversal of thermal sensitivity ([7]; 15.5 µmol/kg s.c., 1 h): 36.1% | % reversal of thermal sensitivity ([7]; 15.5 µmol/kg s.c., 2 h): 19.6% | % reversal of thermal sensitivity ([7]; 15.5 µmol/kg s.c., 3 h): 13.8% | % reversal of thermal sensitivity ([7]; 15.5 µmol/kg s.c., 4 h): -1.96% | % reversal of thermal sensitivity ([7]; 15.5 µmol/kg s.c., 5 h): 0.43% | % reversal of thermal sensitivity ([7]; 15.5 µmol/kg s.c., 6 h): -0.40% | % reversal of thermal sensitivity ([7]; 15.5 µmol/kg s.c., 24 h): 0.00% | Spontaneous locomotor activity (distance traveled) vs saline ([8]; 15.5 µmol/kg s.c. daily, day 1 to day 4): significant increase in the distance traveled | Time points of significant effect on mechanical stimulation vs saline ([11]; 15.5 µmol/kg s.c.): 30 min and one hour | % reversal of mechanical sensitivity ([11]; 15.5 µmol/kg s.c., 30 min): 63.4% | % reversal of mechanical sensitivity ([11]; 15.5 µmol/kg s.c., 1 h): 50.6% | % reversal of mechanical sensitivity ([11]; 15.5 µmol/kg s.c., 2 h): 18.9% | % reversal of mechanical sensitivity ([11]; 15.5 µmol/kg s.c., 3 h): 6.62% | % reversal of mechanical sensitivity ([11]; 15.5 µmol/kg s.c., 4 h): 1.57% | % reversal of mechanical sensitivity ([11]; 15.5 µmol/kg s.c., 5 h): 11.7% | % reversal of mechanical sensitivity ([11]; 15.5 µmol/kg s.c., 6 h): -2.29% | % reversal of mechanical sensitivity ([11]; 15.5 µmol/kg s.c., 24 h): 1.68% | CPP response vs saline ([15]; 15.5 µmol/kg s.c.): significant CPP response | Global withdrawal score vs saline [18]: significantly increased withdrawal
